Experimental data taken from BindingDB's records for doi:10.1021/jm00076a015 (University of Pennsylvania, 1994).

Target: T1, Ribonucleoside-diphosphate reductase large subunit (Mus musculus, UniProt P07742)
T1 sequence (P07742 whole entry): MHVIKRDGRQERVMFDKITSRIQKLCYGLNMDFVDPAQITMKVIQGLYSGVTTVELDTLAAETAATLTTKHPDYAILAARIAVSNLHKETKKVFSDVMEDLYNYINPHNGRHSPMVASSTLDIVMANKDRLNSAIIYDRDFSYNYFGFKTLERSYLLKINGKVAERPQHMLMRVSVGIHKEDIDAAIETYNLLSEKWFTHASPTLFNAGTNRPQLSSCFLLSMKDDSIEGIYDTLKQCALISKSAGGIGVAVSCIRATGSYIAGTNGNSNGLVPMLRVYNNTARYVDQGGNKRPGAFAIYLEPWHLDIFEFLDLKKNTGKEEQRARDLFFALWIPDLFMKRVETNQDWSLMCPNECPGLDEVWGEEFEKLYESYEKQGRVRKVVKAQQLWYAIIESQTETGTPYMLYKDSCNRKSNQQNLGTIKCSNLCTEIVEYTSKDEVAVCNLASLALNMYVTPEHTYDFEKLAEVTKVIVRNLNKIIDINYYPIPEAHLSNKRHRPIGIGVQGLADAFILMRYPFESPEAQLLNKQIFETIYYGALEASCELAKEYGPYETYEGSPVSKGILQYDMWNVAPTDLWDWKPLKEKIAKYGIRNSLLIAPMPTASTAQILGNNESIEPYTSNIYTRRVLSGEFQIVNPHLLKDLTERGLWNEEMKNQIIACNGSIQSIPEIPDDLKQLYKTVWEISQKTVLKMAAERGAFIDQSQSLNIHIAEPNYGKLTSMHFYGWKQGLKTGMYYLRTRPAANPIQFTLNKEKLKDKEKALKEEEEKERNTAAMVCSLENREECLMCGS
Experiment: ChEBML_195421
Description: Inhibitory activity of compound against mammalian ribonucleotide reductase; Range is 40-42

Substance: Ac-AGAFTFNEDF-OH
- IC50: 41 µM
